SMILES strings stand for the structures. pIC50: −log10 of the molar value. Peptide text beside a SMILES is read from it.

One test relates to His-tagged FeoB. Put plainly: His-tagged FeoB binding to peptide columns. Also on record: species or system P. aeruginosa PAO1. Particulars: step gradient 0.3, 0.5, 1.0 M KCl, 0.05% dodecyl-β-D-maltopyranoside, 4 °C, anti-His Western blot, n = 3. The method, then:
(§1) We used the pFeoB plasmid ([6]) with feoB insert from P. aeruginosa PAO1 in pET41-a(+) with a C-terminal 8-His tag and kanamycin-resistant cassette, and E. coli EcCD00397460 plasmid (DNASU Plasmid Repository, Tempe Arizona) with potH insert in PCDF Bravo with C-terminal 10-His tag and streptomycin-resistant cassette. Plasmids of each were generated using standard procedures. His-tagged FeoB or PotH proteins in the supernatant were captured on Ni-Sepharose for 4 h with end-over-end rotation at 4 °C, washed with 10 mM HEPES potassium salt, 10% glycerol, 0.5 M NaCl, 10 mM MgSO4, 10 mM imidazole, and 0.05% dodecyl-β-D-maltopyranoside and eluted with the same wash buffer but containing 0.2 M NaCl and 0.5 M imidazole. Eluted FeoB and PotH were concentrated into 10 mM HEPES potassium salt, 10% glycerol, 10 mM MgSO4, 0.05% dodecyl-β-D-maltopyranoside and 0.15 M NaCl respectively on Amicon Ultra-0.5 Centrifugal UFC505024, UFC503024 and UFC900596 filter units.
(§2) N-104 and C-95 columns (1 ml each) equilibrated in 10 mM HEPES potassium salt, 10% glycerol, 10 mM MgSO4, 0.05% dodecyl-β-D-maltopyranoside, and 0.15 M NaCl were individually mixed at 4 °C overnight with purified FeoB and PotH. […]

For the next test, the target named is T1, His-tagged PotH (Escherichia coli, UniProt P31135).
T1 construct: host or cells: legend says PA14
Put plainly: His-tagged PotH binding to peptide columns. Details: species or system E. coli. The settings on record: step gradient 0.3, 0.5, 1.0 M KCl, 0.05% dodecyl-β-D-maltopyranoside, 4 °C, anti-His Western blot, n = 3. The method, then: as §1, §2
A general note: A western blot detects proteins with antibodies after separation by electrophoresis.

A further test relates to Fe^2+ uptake by PA14. The class given is cell-based, Pseudomonas aeruginosa. The method, then:
Iron depletion was induced in PA14 cells (5 × 10^9 cfu in 10 ml 10 mM Na2HPO4, 1.8 mM KH2PO4, 2.7 mM KCl, 137 mM NaCl (pH 7.2) by treatment with the chelator 1 mM 2,2′-bipyridyl at room temperature for 1 h. After washing twice with 0.9% NaCl, cells were suspended in 1 ml of 1 mM Na2HPO4, 0.18 mM KH2PO4, 0.27 mM KCl, 13.7 mM NaCl for treatment without or with 1, 10, 25, 50 or 100 μM of N-104 (or negative control N-80/C-25 or C-95) for 45 min at 35 °C, incubated at the same temperature for 15 min with 100 μM FeSO4 and 13 mM ascorbic acid, washed twice with 1 mM Na2HPO4, 0.18 mM KH2PO4, 0.27 mM KCl, and 13.7 mM NaCl, and pelleted at 12,000g. The ferrozine assay ([54]) was subsequently employed. Briefly, cells in pellets were lysed with 20 μl of 50 mM NaOH, partially neutralized with 20 μl of 10 mM HCl, subjected to iron release with 20 μl of acidified 0.29 M KMnO4 for 30 min at 80 °C, cooled to room temperature, incubated with 7 μl of 30 mM ferrozine, 1.1 μl of 180 mM neocuproine, 15 μl of 5 M ammonium acetate and 15 μl of 1 M ascorbic acid for 30 min at room temperature and then centrifuged at 21,000g for 10 min. Cellular iron uptake could then be assessed from the supernatant OD565. Single-molecule transport per cell was estimated using a standard curve.

Another test deals with GKY20 (Homo sapiens, UniProt P00734). Description: Dot blot binding assay on immobilized GKY20. Particulars: 20 μM peptide, 2 h at 35 °C, LI-COR detection. The method, then: After washing three times for 10 min, each with 10 ml of 10 mM Na2HPO4, 1.8 mM KH2PO4, 2.7 mM KCl, 137 mM NaCl (pH 7.2), nitrocellulose membranes were incubated overnight at 4 °C with 1 μg/ml of either rabbit polyclonal ab-C-term with specificity for the C-terminal 54 amino acids of lacritin ([86]) appropriate for N-104 or its analogs, or with rabbit anti-lacritin N-terminus antibody ab-N-term appropriate for C-95. Membranes washed three times for 10 min each with 10 ml of 10 mM Na2HPO4, 1.8 mM KH2PO4, 2.7 mM KCl, 137 mM NaCl (pH 7.2), were then incubated with 0.1 μg/ml of IRDye 680RD labeled donkey antirabbit IgG (926-68073, LI-COR) as described above for LI-COR Odyssey CLx detection.

T1 sequence (P31135 whole entry): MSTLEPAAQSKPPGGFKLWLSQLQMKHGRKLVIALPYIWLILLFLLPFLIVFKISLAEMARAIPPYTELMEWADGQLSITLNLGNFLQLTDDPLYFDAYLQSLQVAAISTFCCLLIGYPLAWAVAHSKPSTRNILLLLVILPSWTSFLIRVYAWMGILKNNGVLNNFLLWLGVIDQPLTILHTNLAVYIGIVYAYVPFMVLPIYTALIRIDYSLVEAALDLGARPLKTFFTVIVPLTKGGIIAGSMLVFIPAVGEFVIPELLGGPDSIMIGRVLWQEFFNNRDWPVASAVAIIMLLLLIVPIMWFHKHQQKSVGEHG

For the molecule `C[C@H](NC(=O)CNC(=O)[C@@H](NC(=O)[C@H](CO)NC(=O)[C@H](CC(=O)O)NC(=O)[C@H](CO)NC(=O)[C@H](CO)NC(=O)[C@H](C)NC(=O)[C@H](CC(=O)O)NC(=O)[C@@H](N)CCC(=O)O)[C@@H](C)O)C(=O)N[C@@H](CC(=O)O)C(=O)N1CCC[C@H]1C(=O)N[C@@H](C)C(=O)N[C@@H](CCC(N)=O)C(=O)N[C@@H](CCC(=O)O)C(=O)N[C@@H](C)C(=O)NCC(=O)N[C@H](C(=O)N[C@@H](CO)C(=O)N[C@@H](CCCCN)C(=O)N1CCC[C@H]1C(=O)N[C@@H](CC(N)=O)C(=O)N[C@@H](CCC(=O)O)C(=O)N[C@@H](CCC(=O)O)C(N)=O)[C@@H](C)O` [C-95, reference compound] (H-EDASSDSTGADPAQEAGTSKPNEE-NH2), in the test on His-tagged FeoB, the “KCl elution of His-FeoB from immobilized peptide” value is given as “lacked”. Moreover, the “KCl elution of His-PotH from immobilized peptide” value at His-tagged PotH is “lacked”. Besides, the “effect on exogenous Fe^2+ uptake” value in the test with Fe^2+ uptake by PA14 (1 to 100 μM peptide) is recorded as “had no effect”. In addition, the “binding to nitrocellulose-immobilized GKY20” value at GKY20 is given as “Only N-104 bound to GKY20”.

The pIC50 is the negative decadic logarithm of the IC50, by convention in mol/L. A high value points to a small IC50. Regarding `CC(=O)N[C@@H](C)C(=O)N[C@@H](CCC(N)=O)C(=O)N[C@@H](CCCCN)C(=O)N[C@@H](CC(C)C)C(=O)N[C@@H](CC(C)C)C(=O)N[C@@H](CCCCN)C(=O)N[C@@H](CCCCN)C(=O)N[C@@H](Cc1ccccc1)C(=O)N[C@@H](CO)C(=O)N[C@@H](CC(C)C)C(=O)N[C@@H](CC(C)C)C(=O)N[C@@H](CCCCN)C(=O)N1CCC[C@H]1C(=O)N[C@@H](Cc1c[nH]c2ccccc12)C(=O)N[C@@H](C)C(=O)O` [N-104] (Ac-AQKLLKKFSLLKPWA-OH), in the test on His-tagged FeoB, the “KCl elution of His-FeoB from immobilized peptide” value is “eluted with 0.5 and 1 M but not 0.3 M KCl”. Further, the “KCl elution of His-PotH from immobilized peptide” value at His-tagged PotH is “eluted with 0.5 and 1 M but not 0.3 M KCl”. Further, the pIC50 in the test with Fe^2+ uptake by PA14 (1 h) was 5.00. Besides, the “binding to nitrocellulose-immobilized GKY20” value at GKY20 was “bound to GKY20”.

The record behind these values is PMC12147183, “Lacritin cleavage-potentiated targeting of iron - respiratory reciprocity promotes bacterial death” (The Journal of Biological Chemistry, 2025).
